pEC50: −log10 of the molar value.
What was measured:
human BRCA1 promoter = assay: BRCA1-luciferase reporter assay (Steady-Glo) in stably transfected MCF7 cells; type: cell-based; details: for BRCA1-luciferase activity (in words): MCF7 pGL4.14-hBRCA1.3 cells; for pEC50 / EC90: MCF7-BRCA1-luciferase cells, dilution series
Description: Hygromycin selected MCF7 cells were seeded in 384-well tissue culture plates. The first two columns of each plate were empty so as to include established positive and negative controls. Each of the remaining 352 wells contained a compound to be screened. MCF7 cells were incubated with the compounds for 48 hours. Luciferase activity was measured using the Steady Glo Luciferase Assay System (Promega). Briefly, 5×10^6 MCF7 cells were transfected with […] of purified pGL4.14 containing the human BRCA1 promoter (pGL4.14-hBRCA) with Effectene as per manufacturers protocol (Qiagen). Stable transfectants were selected with […] Hygromicin B. 1×10^5 or 2×10^5 stable transfectants were tested for luciferase activity with the Steady-Glo Luciferase Assay System (Promega).
Hygromycin selected MCF-7 cells (e.g., MCF7 clone pGL4.14-hBRCA1.3) stably transfected with the human BRCA1-luciferase reporter construct (e.g., pGL4.14-hBRCA1.3) were seeded in 384-well white tissue culture plates (Becton Dickenson, San Diego, Calif.) at 1×10^4 cells/well. These cells were then stimulated with indicated concentrations of genistein (Sigma-Aldrich, St. Louis, Mo.) for 0, 6, 9, 24 and 48 hours. Luciferase activity was measured using the Steady Glo Luciferase Assay System (Promega). The data shown in FIG. 3A is representative of 3 individual experiments.
Two different chemical libraries were screened for the ability to enhance BRCA1 gene expression. To examine the effects of each compound on BRCA1 expression, the human BRCA1 promoter was cloned and inserted upstream of the firefly luciferase gene in the plasmid pGL4.14 (BRCA1-Luc) (Promega), as described above. The ER positive human breast cancer cell line, MCF7, was transfected and stable transfectants were selected with hygromycin.
Briefly, compounds were plated in a 384 well plate in a total volume of 20 μl. A ten point dilution series was used at concentrations—100 µM, 10 μM, 1 μM, 100 nM, 10 nM, 1 nM, 0.1 nM, 0.01 nM, 0.0001 nM, 0 (DMSO vehicle only). A second dilution series of 100 μM, 32.5 μM, […], 3.6 μM, 1.2 μM, 400 nM, 132.2 nM, 45 nM, 14.8 nM, 5 nM, and 1.65 nM was also used. MCF7-BRCA1-luciferase cells were added to the compounds at a concentration of 1×10^4 cells/well in a volume of 25 μl. The 384 well plates, containing the compounds+cells, were then incubated at 37° C. for 48 hours. After 48 hours, luciferase activity was measured with the Steady-Glo® Luciferase Assay System (Promega, Madison, Wis.).

BRCA1 protein = BRCA1 protein expression in MCF7 cells by Western blot; type: cell-based, human; details: 48 hours, compared to DMSO
Description: Compounds 29 and 30 were studied for BRCA1 and actin (e.g., housekeeping gene for normalization) protein expression. Briefly, MCF7 cells (2×10^6) in 2 ml MEM were plated in a 6 well tissue culture plate and were either left nonstimulated or treated with DMSO (vehicle control), […] Genistein, or 3 different concentrations of indicated test compound—3.65 μM, […], 32.5 μM. Following incubation at 37° C. for 48 hours, the media was removed and the cells were washed 1× with 500 μl of ice cold PBS. Another 500 μl of ice cold PBS was then added and the cells were scraped off the well and transferred to a microcentrifuge tube. To ensure all cells were removed from the well, an additional […] of ice cold PBS was added to the well and any remaining cells were combined with the initial cell harvest into the microcentrifuge tube. The cells were then pelleted by centrifugation for 5 min at 3000 rpm, 4° C. The supernate was removed and the pellet was then lysed in 150 μl of ice cold RIPA buffer+1× protease inhibitors, on ice for 30 minutes, vortexing occasionally. The cellular debris was then removed by centrifugation for 20 minutes at 11,000 rpm, 4° C. The remaining supernate, containing the extracted proteins, was then transferred to a microcentrifuge tube and quantified using the Bio-Rad DC assay. 100 μg of protein+1×SDS-PAGE sample buffer was loaded onto an 8% Tris glycine gel. The proteins were separated in a tris glycine running buffer at 125 volts for 90 minutes. The proteins were then transferred out of the gel onto PVDF in an overnight transfer with 20% methanol at 35 volts, 4° C. The PVDF membrane was then blocked with 5% milk/PBST (0.1%) for 1 hour at room temperature (RT). BRCA1 protein was detected using anti-BRCA1 (Ab-1, EMD Biosciences) at a 1:250 dilution in 3% milk/PBST, overnight at 4° C. […] To monitor equal protein loading, actin was detected using anti-actin at a 1:200,000 dilution in 5% milk/PBST for 1 hr at RT. […] Chemiluminescence was detected using the SuperSignal West Femto kit made by Pierce Biotechnology and the UVP imaging center. […]

Compound	BRCA1-luciferase activity (in words) (human BRCA1 promoter; 48 hours)	pEC50 (human BRCA1 promoter; Homo sapiens, MCF7, 48 h)	EC90 (human BRCA1 promoter; Homo sapiens, 48 hours) [µM]	pEC50 (human BRCA1 promoter; 48 hours)	BRCA1 protein expression (BRCA1 protein)	BRCA1-luciferase activity (in words) (human BRCA1 promoter; 48 hours, listed as genistein)
O=c1c(-c2ccc(O)cc2)coc2cc(O)ccc12 [Daidzein, reference compound]	dose-dependent increase in BRCA1-luciferase activity	–	–	–	–	–
Cc1ccc(/C(O)=C/C=N/c2cccc(Cl)c2C)cc1 [Cmpd 21]	–	4.95	~9.72	–	–	–
Fc1ccc(-c2nnc(-c3ccc(F)cc3)o2)cc1 [Cmpd 6]	–	5.79	24.2	–	–	–
N/C(=N\OC(=O)c1ccoc1)c1ccc(Br)cc1 [Cmpd 20]	–	4.30	170	–	–	–
Cn1nnc(-c2ccc(OCc3ccccc3F)cc2)n1 [Cmpd 12]	comparatively superior to Compound 13	5.78	15.8	–	–	–
COc1ccccc1OCC(=O)O/N=C(\N)c1ccccn1 [Cmpd 13]	–	4.16	377	–	–	–
CC(=O)c1ccc(/N=C/c2ccc(OCc3ccc(F)cc3)cc2)cc1 [Cmpd 31]	–	5.31	71.5	–	–	–
c1ccc(CNc2ccc3[nH]c(-c4ccco4)nc3c2)cc1 [JN1-68]	rank with the other top compounds and genistein	5.45	8.84	–	–	–
O=C(Nc1ccc(Br)cn1)c1ccc(Oc2ccccc2)cc1 [Cmpd 28]	–	5.16	–	–	–	–
COc1ccc(/C=N/c2ccc3[nH]c(-c4ccccc4)nc3c2)cc1OC [Cmpd 23]	–	4.97	~11.8	–	–	–
Clc1cccc(/C=N/c2ccc3[nH]c(-c4ccco4)nc3c2)c1 [JN1-77]	–	4.46	196	–	–	–
Cc1cc(C(=O)Nc2ccc(N3CCOCC3)cc2)ccc1[N+](=O)[O-] [Cmpd 3]	comparatively superior	5.06	47.3	–	–	–
Cc1cccc(-c2noc(-c3cccs3)n2)c1 [Cmpd 10]	–	6.66	2.56	–	–	–
Fc1cccc(CNc2ccc3[nH]c(-c4ccco4)nc3c2)c1 [JN1-76]	rank with the other top compounds and genistein	5.62	5.94	–	–	–
N/C(=N\OC(=O)Cc1cccs1)c1ccc(Cl)cc1 [Cmpd 8]	–	2.67	–	–	–	–
Cc1ccc(-c2nc3ccc(NCc4cccs4)cc3o2)cc1 [Cmpd 25]	–	–	–	5.06	–	–
O=C(CSc1nc(=O)cc(O)[nH]1)c1ccccc1 [Cmpd 7]	–	2.69	~63700	–	–	–

Compound	BRCA1-luciferase activity (in words) (human BRCA1 promoter; 48 hours)	pEC50 (human BRCA1 promoter; Homo sapiens, MCF7, 48 h)	EC90 (human BRCA1 promoter; Homo sapiens, 48 hours) [µM]	pEC50 (human BRCA1 promoter; 48 hours)	BRCA1 protein expression (BRCA1 protein)	BRCA1-luciferase activity (in words) (human BRCA1 promoter; 48 hours, listed as genistein)
COc1ccc2c(c1OC)C(=O)N(c1ccc(C)cc1)C2 [Cmpd 32]	–	5.03	46.8	–	–	–
O/N=C(\CSc1nc2ccccc2[nH]1)c1ccccc1 [Cmpd 11]	comparatively superior to Compound 13	5.17	80.5	–	–	–
Clc1cccc(CNc2ccc3[nH]c(-c4ccco4)nc3c2)c1 [JN1-82]	rank with the other top compounds and genistein	5.69	4.94	–	–	–
CC(=O)c1cc(C#N)c(SC/C=C/c2ccccc2)nc1C [Cmpd 19]	–	4.69	79.4	–	–	–
CC(C)c1ccc(OCC(=O)O/N=C(\N)c2ccncc2)c(Br)c1 [Cmpd 14]	comparatively superior to Compound 13	3.97	998	–	–	–
Fc1ccc(Nc2nc(-c3ccccc3)cs2)cc1 [Cmpd 5]	–	4.94	~13.8	–	–	–
O=C(COc1cccc2cccnc12)N1CCc2ccccc21 [Cmpd 16]	–	–	~38.8	–	–	–
COc1ccc(-c2nc3cc(C)ccc3o2)cc1N [Cmpd 4]	–	6.14	1.77	–	–	–
Cc1cccc(/C=N/c2ccc3[nH]c(-c4ccco4)nc3c2)c1 [JN1-72]	–	4.59	110	–	–	–
O=C(Nc1ccc(Cl)c(Cl)c1)c1ccccc1Br [Cmpd 9]	comparatively superior, but similar to Compound 8 and 10	5.89	10.1	–	–	–
Cc1ccc(C(=O)Nc2ccc3c(c2)oc2ccccc23)o1 [Cmpd 17]	–	6.02	2.85	–	–	–
Fc1cccc(/C=N/c2ccc3[nH]c(-c4ccco4)nc3c2)c1 [JN1-78]	–	4.76	49.4	–	–	–
Cc1ccc(-c2nc3ccc(NCc4cccs4)cc3o2)cc1 [Cmpd 26]	–	–	366	4.54	–	–
Cc1[nH]n(-c2ccc([N+](=O)[O-])cc2)c(=O)c1/C=N/C1CCCC1 [Cmpd 18]	–	4.95	17.2	–	–	–
O=c1c(-c2ccc(O)cc2)coc2cc(O)cc(O)c12 [Genistein, genistein, reference compound]	dose-dependent increase in BRCA1-luciferase activity	4.84	25	–	increase in BRCA1 protein	increase in BRCA1-luciferase activity
COc1ccc(/C(O)=C\C=N\c2ccccc2OC)cc1 [Cmpd 22]	–	4.96	20.7	–	–	–
NNC(=O)c1nc(-c2ccccc2)cc(-c2ccccc2)n1 [Cmpd 27]	–	–	0.00186	–	–	–
